# Measured values taken from patent publication US20120270915A1, “FATTY ACID AMIDE HYDROLASE INHIHIBITORS FOR TREATING PAIN” (priority 2011, published 2012).
# Read-outs that look alike come from different tables or passages of the source.
# Assays:
# [1] = target: T1, TP receptor (Homo sapiens, UniProt P21731); assay: Prostanoid receptor antagonism (FLIPR), TP; format: cell-based
# T1 sequence (P21731 1-343): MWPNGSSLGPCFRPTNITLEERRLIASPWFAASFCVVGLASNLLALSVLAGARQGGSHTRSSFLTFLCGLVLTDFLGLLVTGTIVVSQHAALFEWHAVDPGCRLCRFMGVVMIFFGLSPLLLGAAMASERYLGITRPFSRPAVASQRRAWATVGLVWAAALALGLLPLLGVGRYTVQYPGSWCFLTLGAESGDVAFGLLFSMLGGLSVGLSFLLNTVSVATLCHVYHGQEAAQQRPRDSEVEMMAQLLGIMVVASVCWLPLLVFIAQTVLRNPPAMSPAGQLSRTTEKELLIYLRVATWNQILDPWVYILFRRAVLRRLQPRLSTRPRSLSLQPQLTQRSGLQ
# [2] = target: EP2 receptor (Homo sapiens, UniProt P43116); assay: Prostanoid receptor antagonism (FLIPR), EP2; format: cell-based
# [3] = target: EP4 receptor (Homo sapiens, UniProt P35408); assay: Prostanoid receptor antagonism (FLIPR), EP4; format: cell-based
# [4] = target: T2, DP receptor (Homo sapiens, UniProt Q13258); assay: Prostanoid receptor antagonism (FLIPR), DP; format: cell-based
# T2 sequence (Q13258 1-359): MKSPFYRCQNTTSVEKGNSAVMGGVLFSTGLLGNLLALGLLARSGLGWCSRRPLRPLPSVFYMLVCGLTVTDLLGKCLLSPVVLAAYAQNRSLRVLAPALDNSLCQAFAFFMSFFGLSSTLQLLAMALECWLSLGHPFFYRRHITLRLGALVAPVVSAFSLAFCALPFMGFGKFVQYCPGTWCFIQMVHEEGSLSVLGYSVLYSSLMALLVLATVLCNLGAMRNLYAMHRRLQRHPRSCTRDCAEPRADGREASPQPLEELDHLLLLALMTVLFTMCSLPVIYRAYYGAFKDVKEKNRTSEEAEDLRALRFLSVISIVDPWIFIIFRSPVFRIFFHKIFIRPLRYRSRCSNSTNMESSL
# [5] = target: T3, FAAH Rat brain (Rattus norvegicus, UniProt P97612); assay: FAAH inhibitory activity, rat brain membranes, [14C]-AEA hydrolysis; format: biochemical
# T3 construct: from tissue; host or cells: rat brain membranes
# T3 sequence (P97612 1-579): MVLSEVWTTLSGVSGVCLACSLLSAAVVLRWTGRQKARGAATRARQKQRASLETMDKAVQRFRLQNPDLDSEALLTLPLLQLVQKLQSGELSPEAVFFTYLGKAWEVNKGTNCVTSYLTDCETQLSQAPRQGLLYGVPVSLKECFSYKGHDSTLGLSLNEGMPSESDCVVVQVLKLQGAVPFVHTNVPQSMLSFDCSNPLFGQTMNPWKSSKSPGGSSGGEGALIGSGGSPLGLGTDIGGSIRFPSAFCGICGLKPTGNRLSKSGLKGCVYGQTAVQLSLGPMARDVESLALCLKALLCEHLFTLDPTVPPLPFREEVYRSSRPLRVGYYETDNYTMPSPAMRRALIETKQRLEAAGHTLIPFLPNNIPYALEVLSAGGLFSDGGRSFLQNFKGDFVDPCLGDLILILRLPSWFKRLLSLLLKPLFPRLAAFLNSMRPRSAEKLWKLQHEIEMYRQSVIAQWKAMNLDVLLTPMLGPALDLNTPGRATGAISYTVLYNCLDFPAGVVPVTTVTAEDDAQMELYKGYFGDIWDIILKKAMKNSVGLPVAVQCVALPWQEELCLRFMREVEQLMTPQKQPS
# Procedure: The compounds of Examples 12, and 19 are tested for FAAH inhibitory activity as follows:
# Method 1: Membranes obtained from rat brain are incubated with 2 mM [^14C]-AEA, 30 min at 37° C. at pH values ranging from 9.00 to 10.00 in presence and absence of tested compounds in a final volume of […]. Incubation is stopped by extraction with CHCl3/MeOH (1:1) and the aqueous phases containing [^14C]-Ethanolamine produced by [^14C]-AEA hydrolysis are measured.
# [6] = target: IP receptor (Homo sapiens, UniProt P43119); assay: Prostanoid receptor antagonism (FLIPR), IP; format: cell-based
# [7] = target: T4, EP3 receptor (Homo sapiens, UniProt P43115); assay: Prostanoid receptor antagonism (FLIPR), EP3; format: cell-based
# T4 sequence (P43115 1-390): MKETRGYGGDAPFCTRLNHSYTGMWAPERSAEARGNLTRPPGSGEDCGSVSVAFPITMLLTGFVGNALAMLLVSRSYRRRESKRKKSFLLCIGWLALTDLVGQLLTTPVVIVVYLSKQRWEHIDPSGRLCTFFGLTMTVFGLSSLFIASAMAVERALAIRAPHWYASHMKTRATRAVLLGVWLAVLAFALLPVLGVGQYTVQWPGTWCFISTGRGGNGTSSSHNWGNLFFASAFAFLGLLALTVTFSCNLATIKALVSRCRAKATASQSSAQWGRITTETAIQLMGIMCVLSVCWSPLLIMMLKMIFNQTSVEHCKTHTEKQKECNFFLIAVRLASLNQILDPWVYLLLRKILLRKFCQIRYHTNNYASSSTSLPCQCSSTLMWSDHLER
# [8] = target: T5, EP1 receptor (Homo sapiens, UniProt P34995); assay: Prostanoid receptor antagonism (FLIPR), EP1; format: cell-based
# T5 sequence (P34995 1-402): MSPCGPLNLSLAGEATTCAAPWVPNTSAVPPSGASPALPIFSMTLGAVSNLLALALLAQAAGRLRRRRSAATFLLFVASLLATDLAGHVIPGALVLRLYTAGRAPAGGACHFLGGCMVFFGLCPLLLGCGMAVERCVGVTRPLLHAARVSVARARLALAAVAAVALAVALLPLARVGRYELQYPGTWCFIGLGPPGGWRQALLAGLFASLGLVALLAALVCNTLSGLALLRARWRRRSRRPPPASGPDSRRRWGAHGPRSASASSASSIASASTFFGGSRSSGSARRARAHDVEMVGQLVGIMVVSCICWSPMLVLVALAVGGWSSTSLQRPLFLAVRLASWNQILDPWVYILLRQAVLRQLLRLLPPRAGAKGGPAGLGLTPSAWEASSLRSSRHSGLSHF
# [9] = target: FP receptor (Homo sapiens, UniProt P43088); assay: Prostanoid receptor antagonism (FLIPR), FP; format: cell-based
# [10] = Table 1, rat brain, read-out: FAAH Rat brain IC50
# [11] = Table 2, rat brain, read-out: FAAH Rat brain IC50
# [12] = Table 3, quantity, enzyme source and unit inferred, read-out: FAAH
# Chain of EP4 receptor (P35408 whole entry): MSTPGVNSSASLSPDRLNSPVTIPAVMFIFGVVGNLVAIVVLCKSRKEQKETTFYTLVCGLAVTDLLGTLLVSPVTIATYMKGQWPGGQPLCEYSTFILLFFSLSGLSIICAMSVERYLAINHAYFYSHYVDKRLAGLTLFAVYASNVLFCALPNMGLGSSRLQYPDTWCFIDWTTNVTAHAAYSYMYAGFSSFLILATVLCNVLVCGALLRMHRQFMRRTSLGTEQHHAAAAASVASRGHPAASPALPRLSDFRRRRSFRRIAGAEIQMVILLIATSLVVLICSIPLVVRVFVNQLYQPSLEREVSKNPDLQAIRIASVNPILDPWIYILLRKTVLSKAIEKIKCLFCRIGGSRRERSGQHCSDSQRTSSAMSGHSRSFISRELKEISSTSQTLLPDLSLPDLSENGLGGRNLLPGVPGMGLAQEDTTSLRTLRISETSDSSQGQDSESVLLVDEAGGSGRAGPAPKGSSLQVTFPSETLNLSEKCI
# Chain of FP receptor (P43088 whole entry): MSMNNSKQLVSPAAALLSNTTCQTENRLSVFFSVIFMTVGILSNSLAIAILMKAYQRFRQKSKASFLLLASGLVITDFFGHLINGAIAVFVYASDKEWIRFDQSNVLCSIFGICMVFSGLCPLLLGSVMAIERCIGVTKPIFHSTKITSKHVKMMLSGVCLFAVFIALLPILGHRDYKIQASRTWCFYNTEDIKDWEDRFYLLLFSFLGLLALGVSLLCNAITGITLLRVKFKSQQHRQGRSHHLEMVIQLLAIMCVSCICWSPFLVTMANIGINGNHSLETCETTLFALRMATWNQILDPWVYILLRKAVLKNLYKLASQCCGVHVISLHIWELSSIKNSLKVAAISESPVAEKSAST
# Chain of EP2 receptor (P43116 whole entry): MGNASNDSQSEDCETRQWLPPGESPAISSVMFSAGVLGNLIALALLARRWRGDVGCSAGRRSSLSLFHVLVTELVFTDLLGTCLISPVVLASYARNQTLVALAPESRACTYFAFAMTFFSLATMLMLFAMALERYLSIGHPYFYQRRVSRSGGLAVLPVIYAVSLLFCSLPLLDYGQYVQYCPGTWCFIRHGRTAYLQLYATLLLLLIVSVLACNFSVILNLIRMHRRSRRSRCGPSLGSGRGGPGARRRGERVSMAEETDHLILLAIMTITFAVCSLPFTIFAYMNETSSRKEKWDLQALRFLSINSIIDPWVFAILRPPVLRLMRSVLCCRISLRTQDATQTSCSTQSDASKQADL
# Chain of IP receptor (P43119 whole entry): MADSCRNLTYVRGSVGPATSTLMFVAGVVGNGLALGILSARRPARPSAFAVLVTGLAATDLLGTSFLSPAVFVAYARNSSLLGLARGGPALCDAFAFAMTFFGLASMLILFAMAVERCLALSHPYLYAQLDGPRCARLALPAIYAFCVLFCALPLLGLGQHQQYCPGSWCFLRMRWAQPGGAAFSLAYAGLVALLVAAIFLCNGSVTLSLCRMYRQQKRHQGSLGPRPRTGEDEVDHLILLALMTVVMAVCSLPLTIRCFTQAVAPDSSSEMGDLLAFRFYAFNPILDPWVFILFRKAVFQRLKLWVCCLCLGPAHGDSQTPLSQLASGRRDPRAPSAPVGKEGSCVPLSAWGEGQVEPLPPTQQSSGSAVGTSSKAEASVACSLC
SMILES,Kb ([1]; Table 1) [nM],Kb ([2]; Table 1) [nM],Kb ([3]; Table 1) [nM],Kb ([4]; Table 1) [nM],"IC50 [5, 10] [nM]",Kb ([6]; Table 1) [nM],Kb ([7]; Table 1) [nM],Kb ([8]; Table 1) [nM],Kb ([9]; Table 1) [nM],Kb ([1]; Table 2) [nM],Kb ([3]; Table 2) [nM],Kb ([4]; Table 2) [nM],"IC50 [5, 11] [nM]",Kb ([7]; Table 2) [nM],Kb ([8]; Table 2) [nM],Kb ([9]; Table 2) [nM],further results
"CCCCCCCCNC(=O)c1coc([C@@H]2CCCN2Cc2cc(F)ccc2CCC(=O)NS(=O)(=O)C(F)(F)F)n1 [Example 12e, 2-{1-[5-fluoro-2-(3-oxo-3-{[(trifluoromethyl)sulfonyl]amino}propyl)benzyl]pyrrolidin-2-yl}-N-octyl-1,3-oxazole-4-carboxamide]",< 1,2500,20,20,–,290,110,20,270,–,–,–,–,–,–,–,IC50 [5]: 2100 nM
"CCCCCCCCNC(=O)c1coc([C@@H]2CCCN2Cc2cc(OC)ccc2CCC(=O)NS(=O)(=O)C(F)(F)F)n1 [Example 12f, 2-{1-(5-methoxy-2-(3-oxo-3-{[(trifluoromethyl)sulfonyl]amino]propyl)benzyl]pyrrolidin-2-yl}-N-octyl-1,3-oxazole-4-carboxamide]",< 1,1100,20,< 1,500,400,140,60,380,–,–,–,–,–,–,–,–
COc1ccc(CCC(=O)O)c(C(=O)N2CCC[C@H]2c2nc(C(=O)NCCCCC3CCCCC3)co2)c1 [Example 19],–,–,–,–,–,–,–,–,–,–,–,–,–,–,–,–,"IC50 [5, 12]: 180 nM"
"CCS(=O)(=O)NC(=O)CCc1ccc(OC)cc1C(=O)N1CCC[C@H]1c1nc(C(=O)NCCCCC2CCCCC2)co1 [Example 19a, 2-{(S)-1-[2-(3-Ethanesulfonylamino-3-oxo-propyl)-5-methoxy-benzoyl]-pyrrolidin-2-yl}-oxazole-4-carboxylic acid (4-cyclohexyl-butyl)-amide]",–,–,–,–,–,–,–,–,–,–,–,–,–,–,–,–,"IC50 [5, 12]: 20 nM"
"COc1ccc(CCC(=O)NS(C)(=O)=O)c(C(=O)N2CCC[C@H]2c2nc(C(=O)NCCCCC3CCCCC3)co2)c1 [Example 19b, 2-{(S)-1-[2-(3-Methanesulfonylamino-3-oxo-propyl)-5-methoxy-benzoyl]-pyrrolidin-2-yl}-oxazole-4-carboxylic acid (4-cyclohexyl-butyl)-amide]",–,–,–,–,–,–,–,–,–,–,–,–,–,–,–,–,"IC50 [5, 12]: 30 nM"

# Now from value to compound, other results behind:
Kb ([1]; Table 1) [nM],Kb ([2]; Table 1) [nM],Kb ([3]; Table 1) [nM],Kb ([4]; Table 1) [nM],"IC50 [5, 10] [nM]",Kb ([6]; Table 1) [nM],Kb ([7]; Table 1) [nM],Kb ([8]; Table 1) [nM],Kb ([9]; Table 1) [nM],Kb ([1]; Table 2) [nM],Kb ([3]; Table 2) [nM],Kb ([4]; Table 2) [nM],"IC50 [5, 11] [nM]",Kb ([7]; Table 2) [nM],Kb ([8]; Table 2) [nM],Kb ([9]; Table 2) [nM],SMILES,further results
< 1,6400,40,< 1,1000,550,80,50,350,–,–,–,–,–,–,–,O=C(CCc1ccc(F)cc1CN1CCC[C@H]1c1nc(C(=O)NCCCCC2CCCCC2)co1)NS(=O)(=O)C(F)(F)F [Example 12a],–
< 1,5500,40,< 1,4500,9500,100,70,460,–,–,–,–,–,–,–,"O=C(CCc1ccc(Cl)cc1CN1CCC[C@H]1c1nc(C(=O)NCCCCC2CCCCC2)co1)NS(=O)(=O)C(F)(F)F [Example 12b, (S)—N-(4-cyclohexylbutyl)-2-(1-(5-chloro-2-(3-oxo-3-(trifluoromethylsulfonamido)propyl)benzyl)pyrrolidin-2-yl)oxazole-4-carboxamide]",–
< 1,830,10,17,200,860,47,20,270,–,–,–,–,–,–,–,"COc1ccc(CCC(=O)NS(=O)(=O)C(F)(F)F)c(CN2CCC[C@H]2c2nc(C(=O)NCCCCC3CCCCC3)co2)c1 [Example 12c, (S)—N-(4-cyclohexylbutyl)-2-(1-(5-methoxy-2-(3-oxo-3-(trifluoromethylsulfonamido)propyl)benzyl)pyrrolidin-2-yl)oxazole-4-carboxamide]",–
0.3,3900,7,3,740,1000,150,60,360,–,–,–,–,–,–,–,O=C(CCc1cc2c(cc1CN1CCC[C@H]1c1nc(C(=O)NCCCCC3CCCCC3)co1)OCO2)NS(=O)(=O)C(F)(F)F [Example 12d],–
–,–,–,–,–,–,–,–,–,8,150,8,100,50,830,2000,"COc1ccc(CCC(=O)NS(=O)(=O)CCCF)c(CN2CCC[C@H]2c2nc(C(=O)NCCCCC3CCCCC3)co2)c1 [Example 12h, 2(S)—N-(4-cyclohexylbutyl)-2-(1-(5-methoxy-2-(3-oxo-3-(fluoropropylsulfonamido)propyl)benzyl)pyrrolidin-2-yl)oxazole-4-carboxamide]","Kb ([2]; Table 2, NA = inactive): 7800 nM"
–,–,–,–,–,–,–,–,–,1,210,44,150,480,1900,1500,"COc1ccc(CCC(=O)NS(=O)(=O)C(C)C)c(CN2CCC[C@H]2c2nc(C(=O)NCCCCC3CCCCC3)co2)c1 [Example 12i, (S)—N-(4-cyclohexylbutyl)-2-(1-(5-methoxy-2-(3-oxo-3-(isopropylsulfonamido)propyl)benzyl)pyrrolidin-2-yl)oxazole-4-carboxamide]",–
–,–,–,–,–,–,–,–,–,4,360,28,210,10,240,2300,"COc1ccc(CCC(=O)NS(=O)(=O)c2ccc(Cl)s2)c(CN2CCC[C@H]2c2nc(C(=O)NCCCCC3CCCCC3)co2)c1 [Example 12j, (S)—N-(4-cyclohexylbutyl)-2-(1-(5-methoxy-2-(3-oxo-3-(5-chlorothienylsulfonamido)propyl)benzyl)pyrrolidin-2-yl)oxazole-4-carboxamide]","Kb ([2]; Table 2, NA = inactive): 900 nM"
–,–,–,–,–,–,–,–,–,13,400,80,200,5600,3100,1400,COc1ccc(CCC(=O)NS(=O)(=O)N(C)C)c(CN2CCC[C@H]2c2nc(C(=O)NCCCCC3CCCCC3)co2)c1 [Example 12k],"Kb ([2]; Table 2, NA = inactive): 4000 nM; Kb ([6]; Table 2, NA = inactive): 2900 nM"
